Experimental data published in the SangsterLogP compilation.
Each block holds one compound with its values, some of them ahead of it.

Key:
[1] = method code SF-AS, from DOI: 10.1016/0147-6513(87)90041-8, PMID: 3830021
[2] = method code SF-AS, from DOI: 10.1093/chemse/13.4.619; settings: pH 7.2
[3] = method code SF-RC, from DOI: 10.1016/j.nucmedbio.2006.06.006, PMID: 16934700; settings: pH 7.4
[4] = method code SF-AS, from DOI: 10.1016/s0003-2670(01)80868-0
[5] = not given; remark: listed apart in the source
[6] = not given; remark: listed apart in the source
[7] = not given; remark: listed apart in the source
[8] = method code SF-AS, from DOI: 10.1007/bf00165040, PMID: 3033523; settings: pH 7.4
[9] = not given; remark: listed apart in the source
[10] = method code SF-AS, from Dallet, P.; Dubost, J.; Colleter, J.; Audry, E.; Creuzet, M. (1985). QSAR in a series of alpha-adrenolitic molecules: optimization of physicochemical parameters. Eur J Med Chem, 20(6)551-557.
[11] = from Pratesi, P.; Villa, L.; Ferri, V.; DeMicheli, C.; Grana, E.; Grieco, C.; Silipo, C.; Vittoria, A. (1979). On the additive-constitutive properties of substituent hydrophobic parameters in a set of …
[12] = method code SF-AS, from DOI: 10.1021/jm00223a031, PMID: 810572
[13] = method code SF-GLC, from DOI: 10.1016/s0045-6535(02)00841-x, PMID: 12615110
[14] = not given; remark: listed apart in the source
[15] = method code SF-AS, from PMID: 3699148; settings: pH 7.4
[16] = not given; remark: listed apart in the source
[17] = method code SF-RC, from DOI: 10.1021/jm301492y, PMID: 23214511; settings: pH 7.4
[18] = method code SF-AS, from DOI: 10.1007/bf02877675, PMID: 411721

SMILES: Cc1ccc(Cl)cc1
- logP: 3.42

- logP [1]: 4
SMILES: CCCCn1c(=O)c2c(N)c3c(=O)c4ccccc4c(=O)c3c(N)c2c1=O

SMILES: O/N=C/c1cccnc1
- logD [2]: 0.68

- logD [3]: 3.44
SMILES: CN(C)c1ccc(-c2cc3ccccc3s2)cc1

- logP [4]: 2.22
SMILES: CC(C)C(=O)CC(=O)C(C)C

- logP [5]: 6.39
SMILES: CCCCCCN1C(=O)NC(c2ccc(Br)cc2)(c2ccc(Br)cc2)C1=O

SMILES: ClC(Cl)(Cl)C(Cl)(Cl)Cl
- logP: 3.82

- logP [6]: -2.33
SMILES: CC(=O)N(CCO)c1c(I)c(C(=O)N(C)CC(O)CO)c(I)c(C(=O)N(C)CC(O)CO)c1I (stereo unspecified)

- logP [7]: -0.05
SMILES: CC(C)(O)C(C)(C)O

- logP [6]: -2.22
SMILES: CC(=O)Nc1c(I)c(C(=O)NC(CO)CO)c(I)c(C(=O)NC(CO)CO)c1I

- logD [3]: 2.87
SMILES: Nc1ccc(-c2cc3ccccc3s2)cc1

- logD [8]: 1.62
SMILES: CSc1nc2c(N)ncnc2n1C1OC2COP(=O)(OCc3ccccc3)OC2C1O (stereo unspecified)

- logP [9]: 4.16
SMILES: O=C(CCCCCN1CCC(O)(c2ccc(Cl)cc2)CC1)c1ccc(F)cc1

- logP [10]: 2.93
SMILES: Cc1cc(OCCN(C)C)c(C(C)C)cc1O

- logD [2]: 0.72
SMILES: COC(=O)c1cccnc1

- logD [2]: 0.4
SMILES: COC(=O)c1ccccn1

- logP [10]: 3.17
SMILES: CC(=O)Oc1cc(C(C)C)c(OCCN(C)C)cc1C

SMILES: O=C(O)CCCC(=O)O
- logP [11]: -0.29

- logP [12]: -0.11
SMILES: Nc1ccc(O)c2ncccc12

SMILES: Brc1ccc(Oc2ccc(Br)c(Br)c2Br)c(Br)c1
- logP [13]: 7.37

- logD [3]: 2.99
SMILES: Oc1ccc(-c2cc3ccccc3s2)cc1

SMILES: CC(C)(C)Sc1nc2c(N)ncnc2n1C1OC2COP(=O)(Oc3ccccc3)OC2C1O (stereo unspecified)
- logD [8]: 2.05

- logP: 3.94
SMILES: Nc1cc(Cl)c(Cl)c(Cl)c1Cl

SMILES: O=[N+]([O-])c1cc(Cl)cc(Cl)c1
- logP [14]: 3.13

SMILES: Cc1ccc([N+](=O)[O-])cc1C
- logP [14]: 2.91

- logD [3]: 2.83
SMILES: FCCOc1ccc(-c2cc3ccccc3s2)cc1

- logD [15]: 2.99
SMILES: CCCCOCCNc1ccc(Cl)cc1C(N)=O

- logP [4]: 0.14
SMILES: CC(=O)CC(C)=O

- logP [9]: 3.24
SMILES: O=C(CCN1CCC(O)(c2ccc(Cl)cc2)CC1)c1ccc(F)cc1

- logP [9]: 3.26
SMILES: OC(CCCN1CCC(O)(c2ccc(Cl)cc2)CC1)c1ccc(F)cc1 (stereo unspecified)

- logD [8]: -1.15
SMILES: Nc1ncnc2c1nc(SCc1ccccc1)n2[C@@H]1O[C@@H]2COP(=O)(O)O[C@H]2[C@H]1O

- logP [10]: 3.12
SMILES: COc1cccc(OC)c1OCCN(C)CCOc1cc(C)c(O)cc1C(C)C

- logP [10]: 3.79
SMILES: Cc1ccc(C(C)C)c(OCCN(C)C)c1

- logD [2]: 1.58
SMILES: c1ccc(-c2ccncc2)nc1

- logP [6]: -2.4
SMILES: CC(=O)N(CCO)c1c(I)c(C(=O)NCC(O)CO)c(I)c(C(=O)NCC(O)CO)c1I (stereo unspecified)

- logP [1]: 4.5
SMILES: CCCCC(CC)Cn1c(O)c(C#N)c(C)c(/N=N/c2ccccc2[N+](=O)[O-])c1=O (stereo unspecified)

SMILES: Brc1cc(Br)c(Oc2cc(Br)c(Br)cc2Br)cc1Br
- logP [13]: 7.9

- logP: 4.29
SMILES: Cc1c(Cl)cccc1Cl

SMILES: Nc1ncnc2c1nc(Br)n2C1OC2COP(=O)(Oc3ccccc3)OC2C1O (stereo unspecified)
- logD [8]: 1.58

- logP [1]: 3.9
SMILES: N#CCCN(CCO)c1ccc(/N=N/c2ccc([N+](=O)[O-])cc2Cl)cc1

SMILES: O=[N+]([O-])c1cccc(Cl)c1Cl
- logP [14]: 3.01

- logP [6]: -2.14
SMILES: CC(=O)Nc1c(I)c(C(=O)N(C)CC(O)CO)c(I)c(C(=O)N(C)CC(O)CO)c1I (stereo unspecified)

SMILES: Brc1ccc(Oc2ccccc2Br)c(Br)c1
- logP [13]: 5.74

SMILES: Cc1ccc(Cl)cc1[N+](=O)[O-]
- logP [14]: 3.05

- logP [1]: 3.4
SMILES: CCn1c(O)c(C#N)c(C)c(/N=N/c2ccc(Cl)cc2[N+](=O)[O-])c1=O

- logP [1]: 4
SMILES: CCCCN(CCOC(C)=O)c1ccc(/N=N/c2c(C#N)cc([N+](=O)[O-])cc2C#N)c(C)c1

- logP [9]: 3.81
SMILES: O=C(CCCCN1CCC(O)(c2ccc(Cl)cc2)CC1)c1ccc(F)cc1

- logP [12]: 2.75
SMILES: COc1ccc(O)c2nccc(C)c12

- logD [15]: 2.27
SMILES: CCCCOCCNc1ccccc1C(N)=O

SMILES: c1ccc(-c2ccc(-c3ccccc3)cc2)cc1
- logP [16]: 6.03

- logD [15]: 2.94
SMILES: Cc1ccccc1OCCNc1ccccc1C(N)=O

SMILES: Brc1ccc(Oc2cc(Br)c(Br)cc2Br)c(Br)c1
- logP [13]: 7.32

- logP [10]: 2.35
SMILES: CNCCOc1cc(C)c(O)cc1C(C)C

- logP [6]: -1.84
SMILES: CC(=O)N(CC(O)CO)c1c(I)c(C(=O)NCCO)c(I)c(C(=O)NCCO)c1I (stereo unspecified)

SMILES: CC(O)CCO (stereo unspecified)
- logP [7]: -0.79

- logD [15]: -0.8
SMILES: NC(=O)c1ccccc1NCC(O)CO (stereo unspecified)

- logP [1]: 4
SMILES: CC(=O)Nc1cc(NCC(C)O)c(Cl)cc1/N=N/c1ccc([N+](=O)[O-])cc1Cl (stereo unspecified)

- logP [10]: 3.63
SMILES: Cc1cc(OCCN(C)C)c(C(C)C)cc1OC1CCCCC1=O (stereo unspecified)

- logP [5]: 6.95
SMILES: CCCCCCCN1C(=O)NC(c2ccc(Br)cc2)(c2ccc(Br)cc2)C1=O

- logP [7]: 0.9
SMILES: CCC(C)(C)N

- logP [4]: 1.67
SMILES: CC(=O)CC(=O)C(C)(C)C

- logP [7]: -0.43
SMILES: OCCCCCO

- logP [4]: 1.12
SMILES: CCC(=O)CC(=O)CC

- logP [7]: 0.19
SMILES: CC(C)CC(N)=O

- logP [9]: 4.2
SMILES: CC(C)c1ccc(C(=O)CCCN2CCC(O)(c3ccc(Cl)cc3)CC2)cc1

- logP [6]: -2.13
SMILES: CC(=O)N(C)c1c(I)c(C(=O)NCC(O)CO)c(I)c(C(=O)NCC(O)CO)c1I (stereo unspecified)

- logP [16]: 4.82
SMILES: O=c1cc(-c2ccccc2)oc2c1ccc1ccccc12

- logP [12]: 2.71
SMILES: Cc1ccnc2c(O)ccc(C)c12

- logP [16]: 4.24
SMILES: Cc1cc(C)c(C)cc1C

- logP [9]: 4.17
SMILES: OC1(c2ccc(Cl)cc2)CCN(CCCSc2ccc(F)cc2)CC1

SMILES: c1ccc(C2CO2)cc1 (stereo unspecified)
- logP [11]: 1.84

- logD [17]: 3.61
SMILES: NC(=O)c1cccc(-c2cccc(C(=O)NC3CCCCC3)c2)c1

- logD [3]: 3.46
SMILES: FCCNc1ccc(-c2cc3ccccc3s2)cc1

SMILES: C=CC#N
- logP [11]: 0.25

- logD [15]: 0.62
SMILES: CC(O)CNc1ccccc1C(N)=O (stereo unspecified)

- logD [15]: 0.7
SMILES: NC(=O)c1ccccc1NCCCO

- logD [17]: 2.8
SMILES: O=C(NC1CCCC1)c1ccc(O)c(-c2ccccc2)c1

- logP [5]: 3.03
SMILES: O=C1NC(Cc2c[nH]c3ccccc23)C(=O)N1Cc1cccc2ccccc12 (stereo unspecified)

- logD [3]: 3.2
SMILES: CNc1ccc(-c2cc3ccccc3s2)cc1

- logD [8]: 2.24
SMILES: Nc1ncnc2c1nc(Sc1ccc(Cl)cc1)n2C1OC2COP(=O)(OCc3ccccc3)OC2C1O (stereo unspecified)

SMILES: Nc1ccccc1Cl
- logP: 1.74

- logD [17]: 3.33
SMILES: CCCCCCNC(=O)c1cccc(C2=NCCO2)c1

- logP [4]: 2.23
SMILES: CCCC(=O)CC(=O)CCC

- logD [17]: 3.42
SMILES: O=C(NC1CCC1)c1ccc(O)c(-c2ccccc2)c1

SMILES: c1ccc(-c2cccnc2)nc1
- logD [2]: 1.46

- logP [5]: 2.86
SMILES: CCCN1C(=O)NC(c2ccccc2)(c2ccccc2)C1=O

SMILES: Brc1ccc(Oc2ccc(Br)cc2Br)cc1
- logP [13]: 5.94

SMILES: O=C1NC(c2ccc(Br)cc2)(c2ccc(Br)cc2)C(=O)N1CCN1CCOCC1
- logP [5]: 4.59

- logP [16]: 2.59
SMILES: Brc1ccsc1

SMILES: OCCNc1ccccc1
- logP [11]: 0.82

- logD [8]: 1.92
SMILES: Nc1ncnc2c1nc(Sc1ccccc1)n2C1OC2COP(=O)(OCc3ccccc3)OC2C1O (stereo unspecified)

- logP [5]: 3.13
SMILES: CCCCCCN1C(=O)NC(Cc2c[nH]c3ccccc23)C1=O (stereo unspecified)

SMILES: O=[N+]([O-])c1ccc(O)c([N+](=O)[O-])c1
- logP [16]: 1.79

- logP [12]: 2.37
SMILES: Cc1ccc(O)c2ncccc12

- logD [17]: 2.35
SMILES: O=C(NC1CCCC1)c1cccc(C2=NCCO2)c1

- logD [17]: 3.01
SMILES: O=C(NC1CCCCC1)c1cccc(C2=NCCO2)c1

- logP [18]: 2.17
SMILES: CC(=O)c1ccc(NN=C(C#N)C#N)cc1

SMILES: CC(=O)CCC(=O)O
- logP [11]: -0.49

- logP [12]: 1.59
SMILES: Cc1ccnc2c(O)ccc(O)c12

SMILES: Cc1cccc([N+](=O)[O-])c1C
- logP [14]: 2.83

- logP [12]: 0.62
SMILES: Oc1ccnc2c(O)cccc12
